Source: patent US20230096028A1, “BICYCLIC HETEROCYCLYL COMPOUNDS AND USES THEREOF” (Revolution Medicines, Inc., priority 2019, published 2023)
pIC50, pKd: −log10 of the molar value.

How the values were obtained:
[1] = biological target: T1, SOS1 catalytic domain (residues 564-1049) (Homo sapiens, UniProt Q07889); test: Potency Assay: binding affinity to SOS1 using Surface Plasmon Resonance (SPR); design: SOS1 catalytic domain (residues 564-1049) immobilized on a sensor chip; details: immobilized SOS1 catalytic domain (residues 564-1049), read-out: SOS1 SPR Equilibrium Kd
T1 sequence (Q07889 564-1049): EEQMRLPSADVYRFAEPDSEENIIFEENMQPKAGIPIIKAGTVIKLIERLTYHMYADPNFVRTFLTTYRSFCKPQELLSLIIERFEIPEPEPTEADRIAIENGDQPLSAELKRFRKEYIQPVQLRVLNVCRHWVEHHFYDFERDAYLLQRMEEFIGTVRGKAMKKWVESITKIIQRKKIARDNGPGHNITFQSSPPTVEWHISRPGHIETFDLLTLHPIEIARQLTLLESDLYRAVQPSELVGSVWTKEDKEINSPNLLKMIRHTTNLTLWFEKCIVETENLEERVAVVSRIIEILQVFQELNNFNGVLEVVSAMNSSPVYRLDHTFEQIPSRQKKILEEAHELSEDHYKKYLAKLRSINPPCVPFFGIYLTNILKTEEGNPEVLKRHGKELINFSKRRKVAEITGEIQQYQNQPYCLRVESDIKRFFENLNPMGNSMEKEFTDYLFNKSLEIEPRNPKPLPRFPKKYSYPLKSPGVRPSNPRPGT
Experimental: Data was reported as equilibrium dissociation constant (Kd) values.
Using a GE Biacore 8K SPR instrument, avi-tagged SOS1 catalytic domain protein was immobilized to a level of approximately 6000 response units (RU) on a streptavidin-coated SPR sensor chip in assay buffer containing 0.01 M HEPES, 0.15 M NaCl and 0.05% v/v Surfactant P20. […] For each test compound, a separate 0 μM sample was generated for use during subsequent double reference subtraction. Serially for each test compound, individual dilution samples were flowed over the immobilized SOS1 protein at a flow rate of 50 μL/minute to monitor the association with SOS1. Dissociation of bound test compound from the SOS1 protein was immediately monitored by flowing assay buffer over the sensor surface and monitoring the decrease in binding signal back to the baseline level seen in the absence of compound. This was repeated for all compound dilutions in each series. The binding level response for each test compound concentration was noted immediately prior to the end of the association phase, and a secondary plot generated showing binding response level versus test compound concentration generated for each compound dilution series.

[2] = biological target: T1, SOS1 catalytic domain (residues 564-1049); test: Mode of Action Assay: inhibition of SOS1 nucleotide exchange activity (SOS1 TR-FRET IC50 Assay)

Row | SMILES | pKd [1] | pIC50 [2]
1 | COC1(C(=O)N2Cc3nc(C(F)(F)CO)nc(N[C@H](C)c4cccc(C(F)F)c4F)c3C2)CCOCC1 [Example 487, (R)-(2-(1,1-difluoro-2-hydroxyethyl)-4-((1-(3-(difluoromethyl)-2-fluorophenyl)ethyl)amino)-5,7-dihydro-6H-pyrrolo[3,4-d]pyrimidin-6-yl)(4-methoxytetrahydro-2H-pyran-4-yl)methanone] | > 6.40 | > 6.00
2 | CC(Nc1nc(Cl)nc2c1CN(C(=O)N1CCOCC1)C2)c1cc(N)cc(C(F)(F)F)c1F (stereo not shown) [Example 461, (4-((1-(5-amino-2-fluoro-3-(trifluoromethyl)phenyl)ethyl)amino)-2-chloro-5,7-dihydro-6H-pyrrolo[3,4-d]pyrimidin-6-yl)(morpholino)methanone] | > 6.40 | > 6.00
3 | C[C@@H]1CN(C(=O)N2Cc3nc(Cl)nc(N[C@H](C)c4cc(N)cc(C(F)(F)F)c4)c3C2)C[C@@H](C)N1 [Example 143] | > 6.40 | > 6.00
4 | C[C@@H](Nc1nc(Cl)nc2c1CN(C(=O)[C@H]1CC[C@@H](O)CC1)C2)c1cc(N)cc(C(F)(F)F)c1 [Example 99] | < 6.40 | > 6.00
5 | C[C@@H](Nc1nc(Cl)nc2c1CN(S(=O)(=O)N1CCOCC1)C2)c1cccc(C(F)(F)CO)c1 [Example 178] | > 6.40 | > 6.00
6 | C[C@@H](Nc1nc(Cl)nc2c1CN(C(=O)N1CCNC(=O)C1)C2)c1cc(N)cc(C(F)(F)F)c1 [Example 367] | > 6.40 | > 6.00
7 | C[C@@H](Nc1nc(Cl)nc2c1CN(C(=O)c1cnccn1)C2)c1cc(N)cc(C(F)(F)F)c1 [Example 66] | < 6.40 | < 6.00
8 | C[C@@H](Nc1nc(Cl)nc2c1CN(C(=O)N1CCOc3ccncc31)C2)c1cc(N)cc(C(F)(F)F)c1 [Example 141] | > 6.40 | > 6.00
9 | Cc1nc2c(c(N[C@H](C)c3cc(N)cc(C(F)(F)F)c3)n1)CN(C(=O)N1CCOCC1)CCC2 [Example 136, N-[(1R)-1-[3-amino-5-(trifluoromethyl)phenyl]ethyl]-2-methyl-6-(morpholine-4-carbonyl)-5H,6H,-7H,8H,9H-pyrimido[5,4-c]azepin-4-amine] | < 6.40 | < 6.00
10 | C[C@@H](Nc1nc(Cl)nc2c1CN(C(=O)N1CCN(C)c3ncncc31)C2)c1cccc(C(F)F)c1F [Example 428] | > 6.40 | > 6.00
11 | C[C@@H](Nc1nc(Cl)nc2c1CN(C(=O)N1CCCC13CCOCC3)C2)c1cc(N)cc(C(F)(F)F)c1 [Example 139] | > 6.40 | > 6.00
12 | C[C@@H](Nc1nc(Cl)nc2c1CN(C(=O)C1CN(C)C1)C2)c1cc(N)cc(C(F)(F)F)c1 [Example 100] | > 6.40 | > 6.00
13 | C[C@@H](Nc1nc(Cl)nc2c1CN(C(=O)c1ccc(-n3ccnc3)cn1)C2)c1cc(N)cc(C(F)(F)F)c1 [Example 76] | < 6.40 | < 6.00
14 | C[C@@H](Nc1nc(Cl)nc2c1CN(S(=O)(=O)c1cn[nH]c1)C2)c1cc(N)cc(C(F)(F)F)c1 [Example 173] | < 6.40 | < 6.00
15 | COc1cc(OC)nc(C(=O)N2Cc3nc(Cl)nc(N[C@H](C)c4cc(N)cc(C(F)(F)F)c4)c3C2)n1 [Example 63] | > 6.40 | < 6.00
16 | O=C(N1CCOCC1)N1Cc2nc(Cl)nc(N[C@H](CO)c3cccc(C(F)(F)F)c3)c2C1 [Example 174] | < 6.40 | < 6.00

Row | SMILES | pKd [1] | pIC50 [2]
17 | COc1cccc(C(=O)N2Cc3nc(Cl)nc(N[C@H](C)c4cc(N)cc(C(F)(F)F)c4)c3C2)n1 [Example 67] | < 6.40 | < 6.00
18 | C[C@@H](Nc1nc(Cl)nc2c1CN(C(=O)c1csc(N3CCOCC3)n1)C2)c1cc(N)cc(C(F)(F)F)c1 [Example 85] | < 6.40 | < 6.00
19 | C[C@@H](Nc1nc(Cl)nc2c1CN(C(=O)NC1CC[C@H](N)C1)C2)c1cc(N)cc(C(F)(F)F)c1 (stereo partly shown) [Example 150] | < 6.40 | > 6.00
20 | C[C@@H](Nc1nc(Cl)nc2c1CN(S(=O)(=O)N1CCN(C)CC1)C2)c1cc(N)cc(C(F)(F)F)c1 [Example 25] | > 6.40 | > 6.00
21 | C[C@@H](Nc1nc(Cl)nc2c1CN(C(=O)c1cc3c(cn1)OCCO3)C2)c1cc(N)cc(C(F)(F)F)c1 [Example 175] | < 6.40 | < 6.00
22 | C[C@@H](Nc1nc(C(F)(F)F)nc2c1CN(C(=O)N1CCOCC1)C2)c1cc(N)cc(C(F)(F)F)c1 [Example 127, N-[(1R)-1-[3-amino-5-(trifluoromethyl)phenyl]ethyl]-6-(morpholine-4-carbonyl)-2-(trifluoromethyl)-5H,6H,7H-pyrrolo[3,4-d]pyrimidin-4-amine] | > 6.40 | < 6.00
23 | C[C@@H](Nc1nc(Cl)nc2c1CN(C(=O)N1CCN(C)c3ncccc31)C2)c1cccc(C(F)F)c1F [Example 426] | < 6.40 | > 6.00
24 | Cc1nc2c(c(N[C@H](C)c3cc(N)cc(C(F)(F)F)c3)n1)CN(C)C2 [Example 43] | < 6.40 | < 6.00
25 | C[C@@H](Nc1nc(CF)nc2c1CN(C(=O)N1CCOCC1)C2)c1cccc(C(F)F)c1F [Example 540, N-[(1R)-1-[3-(difluoromethyl)-2-fluorophenyl]ethyl]-2-(fluoromethyl)-6-(morpholine-4-carbonyl)-5H,6H,7H-pyrrolo[3,4-d]pyrimidin-4-amine] | > 6.40 | > 6.00
26 | Cc1cn2nnc(C(=O)N3Cc4nc(Cl)nc(N[C@H](C)c5cc(N)cc(C(F)(F)F)c5)c4C3)c2c(=O)[nH]1 [Example 103] | > 6.40 | < 6.00
27 | C[C@@H](Nc1nc(Cl)nc2c1CN(C(=O)C1CCOCC1)C2)c1cc(N)cc(C(F)(F)F)c1 [Example 116, N-[(1R)-1-[3-amino-5-(trifluoromethyl)phenyl]ethyl]-2-chloro-6-(oxane-4-carbonyl)-5H,6H,7H-pyrrolo[3,4-d]pyrimidin-4-amine] | > 6.40 | > 6.00
28 | C[C@@H]1CN(C(=O)N2Cc3nc(Cl)nc(N[C@H](C)c4cc(N)cc(C(F)(F)F)c4)c3C2)C[C@H](C)O1 [Example 163] | > 6.40 | > 6.00
29 | C[C@@H](Nc1nc(OC2COC2)nc2c1CN(C(=O)N1CCOCC1)C2)c1cc(N)cc(C(F)(F)F)c1 [Example 133, N-[(1R)-1-[3-amino-5-(trifluoro-methyl)phenyl]ethyl]-6-(morpholine-4-carbonyl)-2-(oxetan-3-yl-oxy)-5H,6H,7H-pyrrolo[3,4-d]pyrimidin-4-amine] | < 6.40 | < 6.00
30 | CCOc1nc2c(c(N[C@H](C)c3cc(N)cc(C(F)(F)F)c3)n1)CN(C(=O)N1CCOCC1)C2 [Example 124, N-[(1R)-1-[3-amino-5-(trifluoromethyl)phenyl]ethyl]-2-ethoxy-6-(morpholine-4-carbonyl)-5H,6H,7H-pyrrolo[3,4-d]pyrimidin-4-amine] | > 6.40 | > 6.00
31 | C[C@@H](Nc1nc(Cl)nc2c1CN(S(=O)(=O)N1CCCC1)CC2)c1cc(N)cc(C(F)(F)F)c1 [Example 182] | > 6.40 | > 6.00
32 | CNC(=O)N1Cc2nc(C)nc(N[C@H](C)c3cc(N)cc(C(F)(F)F)c3)c2C1 [Example 122, 4-{[(1R)-1-[3-amino-5-(trifluoromethyl)phenyl]ethyl]amino}-N,2-dimethyl-5H,6H,7H-pyrrolo[3,4-d]pyrimidine-6-carboxamide] | < 6.40 | < 6.00
